Columns and labels:
[1] = tested on: coexpressed CrGluCl-A:CrGluCl-B; test: Voltage-clamp of oocytes coexpressing CrGluCl-A and CrGluCl-B; assay type: cell-based, Caligus rogercresseyi
Protocol: (§1) Adult female Xenopus laevis frogs were anaesthetized by immersion in a1g/L solution tricaine (Ethyl 3-aminobenzoate methanesulfonate, Sigma) buffered to pH 7 with NaHCO3. Surgery was performed 30–40 min later, once the frog was completely anaesthetized judging by loss of reflexes. Ovarian lobes were removed through 1 cm abdominal incision and then kept at 16°C in Barth’s modified solution containing (in mM): 88 NaCl, 1 KCl, 0.4 CaCl2, 0.3 Ca (NO3)2, 0.8 MgSO4, 2.4 NaHCO3, 5 Hepes, 2.5 sodium pyruvate, 100 μg/ml gentamicin sulfate, 100 U/ml penicillin, 100 μg/ml streptomycin, 250 μg/ml amphotericin B, 0.22μm filtered and adjusted to pH 7.5 with Tris-Base. Osmolarity was brought to 220 mOsm with saccharose. The oocytes were manually defolliculated on the same day of extraction and the following day 20 ng cRNA in nuclease-free water was injected into stage V-VI oocytes using a FemtoJet microinjector (Eppendorf). Finally, the injected oocytes were stored in 96 well plates containing Barth’s modified solution and kept at 16°C until experiment day.
Current measurements at controlled membrane potentials (voltage-clamp experiments) were performed using two intracellular microelectrodes in defolliculated Xenopus oocytes previously microinjected with 20 ng of cRNA. Voltage-clamp recording was performed at room temperature using a TURBO TEC-10CX amplifier (npi electronic GmbH, Tamm, Germany) and PClamp 10.6 software (Axon Instruments, USA), 1 to 4 days after oocyte injection. The oocytes were recorded in a chamber (Model RC-1Z, Warner Instrumenst, USA) under continuous superfusion. […] Reference was an Ag-AgCl electrode connected to the bath via a 3 M KCl in 3% agar bridge. Currents were recorded continuously during the experiments without interruptions for solution changes. Oocytes were held at -30 mV and a voltage protocol consisting of a voltage drop to -100 mV for 25ms followed by a 360 ms ramp from -100 mV to 60mV applied with a period of 565 ms was continuously given. The signal filtered at 1 kHz was acquired with a Digidata 1440A Analog-to-Digital Converter and analyzed with Axon pClamp 10.6 software. The solution that bathed the oocytes during the electrophysiological recordings had the following composition (mM): 115 NaCl, 2 KCl, 1.8 CaCl2, 1 MgCl2, 10 HEPES pH 7.5 obtained with NaOH. For the low chloride solution, all the NaCl was replaced with the gluconate salt of Na. This decreases chloride concentration from 122.6 to 7.6 mM while increasing that of gluconate from 0 to 115 mM. The stock solutions of the drugs in dimethyl sulfoxide (DMSO) were: 10 mM emamectin, 10 mM ivermectin, 100 mM picrotoxin. These were diluted in bath solution to obtain final concentrations.
The currents were normalized according to the extrapolated maximum current delivered by the Hill adjustment. In this way, the concentration that generates 50% of the maximum effect (EC50) and the Hill coefficient (nH) for each situation were obtained.

[2] = tested on: coexpressed CrGluCl-C:CrGluCl-A; test: Voltage-clamp of oocytes coinjected with CrGluCl-C and CrGluCl-A; assay type: cell-based, Caligus rogercresseyi
Protocol: as §1
(§2) Current measurements at controlled membrane potentials (voltage-clamp experiments) were performed using two intracellular microelectrodes in defolliculated Xenopus oocytes previously microinjected with 20 ng of cRNA. Voltage-clamp recording was performed at room temperature using a TURBO TEC-10CX amplifier (npi electronic GmbH, Tamm, Germany) and PClamp 10.6 software (Axon Instruments, USA), 1 to 4 days after oocyte injection. The oocytes were recorded in a chamber (Model RC-1Z, Warner Instrumenst, USA) under continuous superfusion. […] Reference was an Ag-AgCl electrode connected to the bath via a 3 M KCl in 3% agar bridge. Currents were recorded continuously during the experiments without interruptions for solution changes. […] The signal filtered at 1 kHz was acquired with a Digidata 1440A Analog-to-Digital Converter and analyzed with Axon pClamp 10.6 software. […]

[3] = molecular target: coexpressed CrGluCl-E:CrGluCl-A (Caligus rogercresseyi, UniProt A0A1W6LZ70); test: Voltage-clamp of oocytes coinjected with CrGluCl-E and CrGluCl-A; assay type: cell-based; conditions: E:A ratio 1:1
Protocol: as §1, with “The oocytes were manually defolliculated on the same day of extraction and the following day 20 ng cRNA in nuclease-free water was injected into stage V-VI oocytes using a FemtoJet microinjector (Eppendorf). Finally, the injected oocytes were stored in 96 well plates containing Barth’s modified solution and kept at 16°C until experiment day.” left out
(§3) Current measurements at controlled membrane potentials (voltage-clamp experiments) were performed using two intracellular microelectrodes in defolliculated Xenopus oocytes previously microinjected with 20 ng of cRNA. […] The oocytes were recorded in a chamber (Model RC-1Z, Warner Instrumenst, USA) under continuous superfusion. […] Currents were recorded continuously during the experiments without interruptions for solution changes. […] The signal filtered at 1 kHz was acquired with a Digidata 1440A Analog-to-Digital Converter and analyzed with Axon pClamp 10.6 software. […]

[4] = tested on: coexpressed CrGluCl-E:CrGluCl-B; test: Voltage-clamp of oocytes coexpressing CrGluCl-E and CrGluCl-B; assay type: cell-based, Caligus rogercresseyi; conditions: for Iver response to activation: B:E ratio 1:1, 1μM ivermectin
Protocol: as §1, §2

[5] = tested on: CeGluClβ (CeGLC-2); conditions: cited from earlier work
[6] = tested on: coexpressed CrGluCl-D:CrGluCl-A; test: Voltage-clamp of oocytes coinjected with CrGluCl-D and CrGluCl-A; assay type: cell-based, Caligus rogercresseyi; conditions: D:A ratio 1:1
Protocol: as §1, with “The oocytes were manually defolliculated on the same day of extraction and the following day 20 ng cRNA in nuclease-free water was injected into stage V-VI oocytes using a FemtoJet microinjector (Eppendorf). Finally, the injected oocytes were stored in 96 well plates containing Barth’s modified solution and kept at 16°C until experiment day.” left out
as §3

[7] = tested on: CrGluCl-B Q279E-Y361F mutant; test: Voltage-clamp of oocytes expressing CrGluCl-B Q279E-Y361F double mutant; assay type: cell-based, Caligus rogercresseyi; conditions: 1 μM ivermectin, one-sample t-test
Text: To identify putative GluCl subunits, we queried the NCBI Transcriptome Shotgun Assembly Sequence (TSA) Database for “glutamate-gated chloride channel Caligus”. The obtained sequences were translated and BLASTed (tBLASTn) against the C. rogercresseyi genome (WGS, BioProject ID 280098, NCBI) and against transcripts of L. salmonis database (https://licebase.org/). Primers for each of the putative new subunit found were designed to span the full length of the open reading frame (ORF) for each of them (B-E) (S1 Table, and arrows in Fig 1). Complete cDNAs were generated by RT-PCR from adult C. rogercresseyi samples from which putative full-length peptide sequences of CrGluCl-B, CrGluCl-C, CrGluCl-D and CrGluCl-E were obtained. Each PCR product was cloned in pGEM-T easy vector and sequenced. […]
as §3

coexpressed CrGluCl-E:CrGluCl-A, sequence (A0A1W6LZ70 entry or part of it): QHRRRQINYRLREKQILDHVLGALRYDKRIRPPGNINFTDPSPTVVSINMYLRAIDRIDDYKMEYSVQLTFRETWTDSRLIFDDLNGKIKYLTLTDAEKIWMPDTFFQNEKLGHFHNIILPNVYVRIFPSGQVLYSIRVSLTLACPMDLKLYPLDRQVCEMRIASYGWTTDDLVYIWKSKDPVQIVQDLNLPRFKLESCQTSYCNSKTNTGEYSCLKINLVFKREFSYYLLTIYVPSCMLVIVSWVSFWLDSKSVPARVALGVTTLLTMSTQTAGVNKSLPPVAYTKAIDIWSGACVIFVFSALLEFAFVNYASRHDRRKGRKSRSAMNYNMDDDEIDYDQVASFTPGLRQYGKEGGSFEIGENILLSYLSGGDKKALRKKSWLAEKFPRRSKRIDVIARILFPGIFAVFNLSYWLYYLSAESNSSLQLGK

Compound	EC50 ([1]; A:B ratio 1:1) [µM]	EC50 ([1]; A:B ratio 1:4) [µM]	EC50 ([1]; A:B ratio 4:1) [µM]	EC50 ([2]; C:A 1:1, 60 mV, single Hill equation) [µM]	nH (glutamate) [3]	EC50 ([4]; B:E ratio 1:1, 60 mV) [µM]	EC50 ([5]; read-out: EC50 glutamate, CeGluClβ) [µM]	Iver response to activation ([1]; A:B ratio 1:1)	Iver response to activation ([1]; A:B ratio 1:4)	Iver response to activation ([1]; A:B ratio 4:1)	Iver response to activation ([2]; C:A 1:1, 60mV)	Iver response to activation ([2]; C:A 1:1, -80mV)	Iver response to activation [6]	Iver response to activation [3]	Iver response to activation [4]	Iver response to activation ([4]; listed as Iver)	effect of ivermectin on current [7]	nH (ivermectin inhibition) ([5]; CeGLC-2)	IC50 ([5]; read-out: IC50 ivermectin inhibition of glutamate activated current, CeGLC-2) [µM]
N[C@@H](CCC(=O)O)C(=O)O [glutamate, L-glutamate]	82 ± 35	72 ± 47	89 ± 47	7.9 ± 0.9	2.5 ± 0.3	534 ± 239	380												
ivermectin								Insensitive	Insensitive	Insensitive	Sensitive	Sensitive	Sensitive	Sensitive	without any activating effect	Insensitive	small but significant effects	-1.74	1.28
